Data taken from the NIST ThermoML archive (doi:10.1016/j.fluid.2018.05.028).

Key:
[1] = 101 kPa, Liquid; for viscosity: Concentric cylinders viscometry; for speed of sound: Single path-length method; for mass density: Vibrating tube method
[2] = refractive index (Na D-line) (dimensionless); conditions: 101 kPa, Liquid, Standard Abbe refractometry
[3] = xn = mol fraction of the nth substance listed; conditions: 101 kPa, Liquid, x1 = 1; for viscosity: Concentric cylinders viscometry; for speed of sound: Single path-length method; for mass density: Vibrating tube method
[4] = refractive index (Na D-line) (dimensionless); xn = mol fraction of the nth substance listed; conditions: 101 kPa, Liquid, Standard Abbe refractometry, x1 = 1

CCCCO [butan-1-ol]
Conditions	mass density, [1] [kg/m3]	refractive index, [2]	speed of sound, [1] [m/s]	viscosity, [1] [mPa·s]
298.15 K	805.98	1.3979	1239.6	2.531
303.15 K	802.13	1.3959	1222.8	2.232
308.15 K	798.25	1.3938	1206	1.975

CCCCO [butan-1-ol] + CCCCCCCCCCCCCCCC
Conditions	mass density, [3] [kg/m3]	refractive index, [4]	speed of sound, [3] [m/s]	viscosity, [3] [mPa·s]
293.15 K	809.8	1.3999	1256.6	2.868
298.15 K	805.98	1.3979	1239.6	2.531
303.15 K	802.13	1.3959	1222.8	2.232
308.15 K	798.25	1.3938	1206	1.975
313.15 K	794.35	1.3918	1189.4	1.758
318.15 K	790.41	1.3897	1172.8	1.563
323.15 K	786.42	1.3876	1156.2	1.399
328.15 K	782.39	1.3855	1139.7	1.256
333.15 K	778.3	1.3833	1123.2	1.131
338.15 K	774.15	1.381	1106.6	1.021
343.15 K	769.94	1.3788	1090.1	0.925

CCCCCCCC/C=C\CCCCCCCC(=O)OCC [ethyl (Z)-9-octadeceneoate]
Conditions	mass density, [1] [kg/m3]	refractive index, [2]	speed of sound, [1] [m/s]	viscosity, [1] [mPa·s]
298.15 K	865.23	1.4481	1376.2	5.674
303.15 K	861.6	1.4461	1358.4	4.999
308.15 K	857.97	1.4441	1340.8	4.435

CCCCCCCCCCCCCCCC [hexadecane]
Conditions	mass density, [1] [kg/m3]	refractive index, [2]	speed of sound, [1] [m/s]	viscosity, [1] [mPa·s]
298.15 K	769.87	1.4318	1338.5	3.035
303.15 K	766.4	1.4296	1319.8	2.708
308.15 K	762.95	1.4275	1301.3	2.432

CCCO [propan-1-ol]
Conditions	mass density, [1] [kg/m3]	refractive index, [2]	speed of sound, [1] [m/s]	viscosity, [1] [mPa·s]
298.15 K	799.93	1.3831	1205.7	1.926
303.15 K	795.89	1.381	1188.6	1.716
308.15 K	791.82	1.3789	1171.6	1.532

CCCO [propan-1-ol] + CCCCCCCC/C=C\CCCCCCCC(=O)OCC
Conditions	mass density, [3] [kg/m3]	refractive index, [4]	speed of sound, [3] [m/s]	viscosity, [3] [mPa·s]
293.15 K	803.95	1.3852	1223	2.147
298.15 K	799.93	1.3831	1205.7	1.926
303.15 K	795.89	1.381	1188.6	1.716
308.15 K	791.82	1.3789	1171.6	1.532
313.15 K	787.71	1.3768	1154.7	1.379
318.15 K	783.56	1.3747	1137.9	1.234
323.15 K	779.36	1.3726	1121.1	1.112
328.15 K	775.1	1.3704	1104.3	1.004
333.15 K	770.78	1.3682	1087.5	0.9109
338.15 K	766.4	1.366	1070.6	0.8241
343.15 K	761.93	1.3635	1053.8	0.7468

CCCO [propan-1-ol] + CCCCCCCCCCCCCCCC
Conditions	mass density, [3] [kg/m3]	refractive index, [4]	speed of sound, [3] [m/s]	viscosity, [3] [mPa·s]
293.15 K	803.95	1.3852	1223	2.147
298.15 K	799.93	1.3831	1205.7	1.926
303.15 K	795.89	1.381	1188.6	1.716
308.15 K	791.82	1.3789	1171.6	1.532
313.15 K	787.71	1.3768	1154.7	1.379
318.15 K	783.56	1.3747	1137.9	1.234
323.15 K	779.36	1.3726	1121.1	1.112
328.15 K	775.1	1.3704	1104.3	1.004
333.15 K	770.78	1.3682	1087.5	0.9109
338.15 K	766.4	1.366	1070.6	0.8241
343.15 K	761.93	1.3635	1053.8	0.7468
